This passage reports IC50 results from patent US20240116985A1, “STAPLED PEPTIDES AND METHODS THEREOF” (priority 2020, published 2024).

The target of test [1] is T1, beta-catenin/TCF4 engagement (Homo sapiens, UniProt P35222).
T1 construct: expressed in transfected cells; host or cells: HEK293
T1 sequence (P35222 1-781): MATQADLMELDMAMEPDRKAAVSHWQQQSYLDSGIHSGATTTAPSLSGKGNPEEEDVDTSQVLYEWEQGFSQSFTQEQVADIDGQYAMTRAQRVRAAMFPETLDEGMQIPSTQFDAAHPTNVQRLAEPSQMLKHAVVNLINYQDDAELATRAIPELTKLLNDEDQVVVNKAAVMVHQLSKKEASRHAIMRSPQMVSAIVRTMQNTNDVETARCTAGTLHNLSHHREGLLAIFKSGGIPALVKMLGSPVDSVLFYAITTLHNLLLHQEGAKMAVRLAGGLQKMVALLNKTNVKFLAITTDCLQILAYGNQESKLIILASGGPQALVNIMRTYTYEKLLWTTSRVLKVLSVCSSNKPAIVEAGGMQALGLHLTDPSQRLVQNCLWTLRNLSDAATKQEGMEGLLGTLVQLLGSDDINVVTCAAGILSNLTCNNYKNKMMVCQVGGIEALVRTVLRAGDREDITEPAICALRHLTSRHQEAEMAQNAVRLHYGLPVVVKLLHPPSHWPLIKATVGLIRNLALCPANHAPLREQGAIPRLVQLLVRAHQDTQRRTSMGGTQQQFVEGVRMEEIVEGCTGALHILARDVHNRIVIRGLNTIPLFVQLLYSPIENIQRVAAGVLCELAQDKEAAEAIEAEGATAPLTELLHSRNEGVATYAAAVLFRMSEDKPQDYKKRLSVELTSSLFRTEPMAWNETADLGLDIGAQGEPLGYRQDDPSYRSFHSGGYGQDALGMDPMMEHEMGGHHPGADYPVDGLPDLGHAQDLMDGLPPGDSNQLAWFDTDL
The experiment in a line: Nano-BRET target engagement assay (B-cat-Halo & TCF4-Luc in HEK293 cells). In kind it is cell-based. The conditions noted are these: absolute IC50; read-out: NanoBRET Abs IC50. In general terms: Bioluminescence resonance energy transfer reports proximity on the nanometre scale.

For test [2], the system named is TCF/LEF luciferase Reporter in DLD1 cells. Description: TCF reporter assay (DLD1 TCF/LEF luciferase reporter, Bright-Glo). It is filed as cell-based. The conditions noted are these: absolute IC50. The source says: Those skilled in the art will appreciate that other suitable reagents may be utilized and various parameters may be adjusted.
DLD1 reporter cell line was generated by using TCF/LEF luciferase Reporter Lentivirus (BPS Bioscience Catalog #79787). Parental DLD1 cells (ATCC@ CCL-221) were transfected with the lentivirus and followed by 3-day puromycin selection. Single clone was selected for Reporter assay.
On Day 1, cultured cells in flasks that are no more than about 60-70% confluent were washed with PBS and typsinized in 3 mL/T75 until cells were free floating. Spin down cells for 5 minutes at 1100RPM. While cells spin, determine the number of plates (3 compounds per plate) needed. After spinning, aspirate the supernatant gently and add 10 mL media (RPMI+4% FBS), and re-suspend and mix the cells gently. Count the cells twice in the cell counter Countess and take average of both the counts, and determine how many cells are needed. After plating cells at 5000 cells/well, seal with aerseal film. 90 uL cells/well. Incubate at 37° C. overnight, tap gently to mix and don't stack plates.
On Day 2, compounds were added. Stock solution was 10 mM. Make the DMSO containing media by adding 36 uL DMSO to 10 mL of media. Make the dilution wells by transferring 100 uL DMSO+Media into rows B-F of a protein LoBind 96-well plate. Row G is empty. Add any extra DMSO+media to row H. Transfer 4 uL of stock solution to Row A. One compound per column. Add 196 uL media to Row A, no DMSO in the media. Concentration of Row A was 200 uM. Mix well and do a 6 pt, 1:2 serial dilution, mix ×10 per transfer and change tips before each transfer. Removed excess volume from final well (row F) and discard. Transfer 10 uL of the compound containing media to cells with a multichannel according to plate maps. Add 60 uL DMSO containing media to the DMSO wells. The edge wells were typically not used in the assay and could be ignored if needed or replaced with PBS, but there typically were liquids in the wells. Cover plates with breathable plate sealer and incubate overnight.
A 96-well plate may be utilized to prepare dilution series for up to 12 compounds, each with several concentrations (e.g., 200, 100, 50, 25, 12.5, 6.25 and 0 uM; can be utilized as 100× depending on final test concentrations).
0 uM is the DMSO control for the whole plate. Edge well filled with 90 uL cells+10 uL DMSO containing media.
On Day 3, luciferase levels were assessed using Bright-Glo (Promega). Equilibrate Bright-Glo to room temperature before addition. 7 mL of mixed Bright-Gbo per plate. Unused Bright-Glo could be store at −80° C. Reconstituted reagent can be stored for up to 1 month at −80° C., or after one freeze-thaw. When ready to read, remove plates from incubator and let sit at room temperature for 15 minutes. Typically stagger taking out plates if reading multiple plates before adding the Bright-Glo. Add 90 uL/well Bright-Glo and shake gently for 3 minutes. Read luminescence on GloMax immediately using ‘BrightGlo’ programs.
Cellular activity was assessed using CTG. Equilibrate CTG reagents to room temperature. Equilibrate plates to room temp, e.g. 15 min. Use same time length for all plates. Add CTG reagent, 25 uL if using undiluted, or 90 uL if diluted 1 to 4. Shake for 2 min to induce cell lysis. Allow plate to incubate at RT for 10 min to stabilize lumine sent signal. Read luminesence using program ‘CellTiter-Glo’. Use Prism to find the Absolute IC50 (AbsIC50=X[50]) of each compound.

Test [3] addresses T2, full-length beta-Catenin (Uniprot ID P35222) (Homo sapiens, UniProt P35222).
T2 construct: 10 nM full-length beta-Catenin (Uniprot ID P35222)
T2 sequence (P35222 1-781): T1 sequence (P35222 1-781)
The experiment in a line: Fluorescence polarization IC50 (beta-catenin / 5FAM-TCF4 10-53 competition). The conditions noted are these: read-out: beta-Catenin FP IC50. It is filed as binding. On the technique in general: In fluorescence polarisation assays a small probe gives low polarisation when free and higher when bound to something large.

Setting [4] is: read-out: DLD1 reporter assay Abs IC50.
The mark [5] stands for this setting: read-out: DLD1 4% Abs IC50, DLD1 reporter, 4%.

Like-named read-outs stand apart in the source and are kept apart here. Bounds are passed on as bounds.

Regarding `CC(=O)N1CCC[C@]12CC=CCCCC1(CCCC=CCCCOC(=O)N3CC[C@@](C(=O)N[C@@H](Cc4ccsc4)C(=O)N[C@@H](Cc4csc5ccccc45)C(=O)N[C@@H](CCC(N)=O)C(=O)O)(C3)NC(=O)[C@H](CC(N)=O)NC(=O)[C@H](Cc3ccccc3)NC(=O)[C@H](C)NC(=O)[C@H](C)NC(=O)[C@H](CC(=O)O)NC(=O)[C@H](CC(=O)O)NC1=O)NC(=O)[C@H](CC(C)(C)C)NC(=O)[C@H](CC(=O)O)NC2=O` (stereo partly drawn) [I-1025, Ac-PL3-Asp-Npg-B5-Asp-Asp-Ala-Ala-Phe-Asn-PyrS2-3Thi-BztA-Gln-OH], the figures for the IC50 in test [1], in test [2] (setting [4]) and in test [3] were 23.6 µM, over 20 µM and 0.005 µM, respectively.

Consider `CC(=O)N1CCC[C@]12CC=CCCCC1(CCCC=CCCCOC(=O)N3CC[C@@](C(=O)N[C@@H](Cc4ccsc4)C(=O)N[C@@H](Cc4csc5ccccc45)C(=O)N[C@@H](CCC(N)=O)C(=O)O)(C3)NC(=O)[C@H](CC(N)=O)NC(=O)[C@H](Cc3ccccc3)NC(=O)[C@H](C)NC(=O)[C@H](C)NC(=O)[C@H](CN(CC(=O)O)CC(F)(F)F)NC(=O)[C@H](CC(=O)O)NC1=O)NC(=O)[C@H](CC(C)(C)C)NC(=O)[C@H](CC(=O)O)NC2=O` (stereo partly drawn) [I-1026, Ac-PL3-Asp-Npg-B5-Asp-TfeGA-Ala-Ala-Phe-Asn-PyrS2-3Thi-BztA-Gln-OH], for which the IC50 in test [1] is 16.7 µM; in test [2] (setting [4]), over 20 µM; in test [3], 0.005 µM.

In the case of `CCNC(=O)[C@H](CCC(N)=O)NC(=O)[C@H](Cc1csc2ccccc12)NC(=O)[C@H](Cc1ccccc1Cl)NC(=O)[C@]12CCN(C1)C(=O)OCCCC=CCCCC1(CCCC=CC[C@]3(CCCN3C(C)=O)C(=O)N[C@@H](CC(=O)O)C(=O)N[C@@H](CC(C)(C)C)C(=O)N1)C(=O)N[C@@H](CC(=O)O)C(=O)N[C@@H](CN(CC(=O)O)CC(F)(F)F)C(=O)N[C@@H](C)C(=O)N[C@@H](C)C(=O)N[C@@H](Cc1ccccc1)C(=O)N[C@@H]([C@@H](C)O)C(=O)N2` (stereo partly drawn) [I-1240, Ac-PL3-Asp-Npg-B5-Asp-TfeGA-Ala-Ala-Phe-Thr-PyrS2-2C1F-BztA-Gln-NHEt], the figures for the IC50 in test [1], in test [2] (setting [4]) and in test [3] (fluorescence polarization) were 11.5 µM, 4.9 µM and 0.033 µM, respectively.

As for `CC(=O)N1CCC[C@]12CC=CCCCC1(CCCC=CCCCOC(=O)N3CC[C@@](C(=O)N[C@@H](Cc4ccccc4Cl)C(=O)N[C@@H](Cc4csc5ccccc45)C(=O)N[C@H](CO)[C@@H](C)O)(C3)NC(=O)[C@H]([C@@H](C)O)NC(=O)[C@H](Cc3ccccc3)NC(=O)[C@H](C)NC(=O)[C@H](C)NC(=O)[C@H](CN(CC(=O)O)CC(F)(F)F)NC(=O)[C@H](CC(=O)O)NC1=O)NC(=O)[C@H](CC(C)(C)C)NC(=O)[C@H](CC(=O)O)NC2=O` (stereo partly drawn) [I-1241, Ac-PL3-Asp-Npg-B5-Asp-TfeGA-Ala-Ala-Phe-Thr-PyrS2-2C1F-BztA-Thro1], the IC50 in test [1] is 15.7 µM; in test [2] (setting [4]), 3.8 µM; in test [3] (fluorescence polarization), 0.019 µM.

Regarding `CC(=O)N1CCC[C@]12CC=CCCCC1(CCCC=CCCCOC(=O)N3CC[C@@](C(=O)N[C@@H](Cc4ccccc4Cl)C(=O)N[C@@H](Cc4csc5ccccc45)C(=O)N[C@@H](C)CO)(C3)NC(=O)[C@H]([C@@H](C)O)NC(=O)[C@H](Cc3ccccc3)NC(=O)[C@H](C)NC(=O)[C@H](C)NC(=O)[C@H](CN(CC(=O)O)CC(F)(F)F)NC(=O)[C@H](CC(=O)O)NC1=O)NC(=O)[C@H](CC(C)(C)C)NC(=O)[C@H](CC(=O)O)NC2=O` (stereo partly drawn) [I-1242, Ac-PL3-Asp-Npg-B5-Asp-TfeGA-Ala-Ala-Phe-Thr-PyrS2-2C1F-BztA-Alao1], the IC50 in test [1] was over 20 µM; in test [2] (setting [4]) it was 4.8 µM; in test [2] (setting [5]), 3.8 µM; in test [3] (fluorescence polarization), 0.03 µM.

With `CCNC(=O)[C@H](CO)NC(=O)[C@H](Cc1csc2ccccc12)NC(=O)[C@H](Cc1ccccc1Cl)NC(=O)[C@]12CCN(C1)C(=O)OCCCC=CCCCC1(CCCC=CC[C@]3(CCCN3C(C)=O)C(=O)N[C@@H](CC(=O)O)C(=O)N[C@@H](CC(C)(C)C)C(=O)N1)C(=O)N[C@@H](CC(=O)O)C(=O)N[C@@H](CC(=O)O)C(=O)N[C@@H](C)C(=O)N[C@@H](C)C(=O)N[C@@H](Cc1ccccc1)C(=O)N[C@@H]([C@@H](C)O)C(=O)N2` (stereo partly drawn) [I-1244, Ac-PL3-Asp-Npg-B5-Asp-Asp-Ala-Ala-Phe-Thr-PyrS2-2C1F-BztA-Ser-NHEt], the IC50 worked out at 17.7 µM in test [1], 13.9 µM in test [2] (setting [4]), 15.9 µM in test [2] (setting [5]) and 0.018 µM in test [3] (fluorescence polarization).

For `CC(=O)N1CCC[C@]12CC=CCCCC1(CCCC=CCCCOC(=O)N3CC[C@@](C(=O)N[C@@H](Cc4ccccc4Cl)C(=O)N[C@@H](Cc4csc5ccccc45)C(=O)N[C@H](CO)[C@@H](C)O)(C3)NC(=O)[C@H]([C@@H](C)O)NC(=O)[C@H](Cc3ccccc3)NC(=O)[C@H](C)NC(=O)[C@H](C)NC(=O)[C@H](CC(=O)O)NC(=O)[C@H](CC(=O)O)NC1=O)NC(=O)[C@H](CC(C)(C)C)NC(=O)[C@H](CC(=O)O)NC2=O` (stereo partly drawn) [I-1245, Ac-PL3-Asp-Npg-B5-Asp-Asp-Ala-Ala-Phe-Thr-PyrS2-2C1F-BztA-Thro1], the IC50 in test [1] was 12.2 µM; in test [2] (setting [4]), 7.3 µM; in test [2] (setting [5]) it was 4.1 µM; in test [3] (fluorescence polarization) it was 0.009 µM.

Take `CC(=O)N1CCC[C@]12CC=CCCCC1(CCCC=CCCCOC(=O)N3CC[C@@](C(=O)N[C@@H](Cc4ccccc4Cl)C(=O)N[C@@H](Cc4csc5ccccc45)C(=O)N[C@@H](C)CO)(C3)NC(=O)[C@H]([C@@H](C)O)NC(=O)[C@H](Cc3ccccc3)NC(=O)[C@H](C)NC(=O)[C@H](C)NC(=O)[C@H](CC(=O)O)NC(=O)[C@H](CC(=O)O)NC1=O)NC(=O)[C@H](CC(C)(C)C)NC(=O)[C@H](CC(=O)O)NC2=O` (stereo partly drawn) [I-1246, Ac-PL3-Asp-Npg-B5-Asp-Asp-Ala-Ala-Phe-Thr-PyrS2-2C1F-BztA-Alao1]: the IC50 in test [1] was found to be 24.3 µM; in test [2] (setting [4]), 15.9 µM; in test [2] (setting [5]), 16.2 µM; in test [3] (fluorescence polarization), 0.013 µM.

In general, IC50 refers to the concentration needed to halve the response being measured.
